pIC50: −log10 of the molar value. Like-named read-outs stand apart in the source and are kept apart here.
Target: T1, His-PKC-theta (Homo sapiens, UniProt Q04759)
T1 construct: His; purchased Invitrogen
Experiment: PKC-theta Assay (384-well time resolved fluorescence, IMAP TR-FRET)
Type: biochemical
Details: read-out: Act. Level (IC50 in the PKC-theta Assay)
In short: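 Fam-labeled S6-derived peptide (200 nM) and 10 μM ATP were reacted with 142 pM enzyme for 2 h at room temperature in HEPES pH 7.6 buffer with MgCl2, DTT, Triton X-100, BSA and EDTA. The reaction was stopped with IMAP progressive binding reagent plus Tb donor, incubated overnight, then TR-FRET read.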

T1 sequence (Q04759 whole entry): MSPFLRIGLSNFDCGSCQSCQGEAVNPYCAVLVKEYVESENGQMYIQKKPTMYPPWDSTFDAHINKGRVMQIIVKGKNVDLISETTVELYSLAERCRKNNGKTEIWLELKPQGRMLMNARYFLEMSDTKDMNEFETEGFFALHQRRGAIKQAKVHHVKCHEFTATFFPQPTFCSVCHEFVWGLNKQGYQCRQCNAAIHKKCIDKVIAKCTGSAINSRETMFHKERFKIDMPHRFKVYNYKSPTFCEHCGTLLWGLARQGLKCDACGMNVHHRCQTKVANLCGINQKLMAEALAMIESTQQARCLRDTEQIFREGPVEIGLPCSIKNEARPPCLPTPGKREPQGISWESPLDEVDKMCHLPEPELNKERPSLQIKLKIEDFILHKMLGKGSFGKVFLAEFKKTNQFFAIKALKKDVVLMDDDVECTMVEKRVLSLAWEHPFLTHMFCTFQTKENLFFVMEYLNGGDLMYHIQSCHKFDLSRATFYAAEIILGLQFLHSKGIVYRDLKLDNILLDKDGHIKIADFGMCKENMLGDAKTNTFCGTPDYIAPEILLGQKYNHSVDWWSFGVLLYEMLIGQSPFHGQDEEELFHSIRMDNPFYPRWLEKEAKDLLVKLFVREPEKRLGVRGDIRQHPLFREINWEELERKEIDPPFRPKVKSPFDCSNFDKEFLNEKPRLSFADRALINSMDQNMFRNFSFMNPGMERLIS

| pIC50 | pIC50 (Table 2) | Structure (SMILES) |
| --- | --- | --- |
| 5.70 to 6.10 |  | N#Cc1cnc(NCCc2c[nH]c3cc(F)ccc23)nc1N[C@H]1CC[C@@H](O)CC1 [Cmpd 165] |
|  | 5.70 to 6.10 | CC1(C)C[C@H](Nc2nc(NCCc3cccc(C#N)c3)ncc2C#N)CC[C@@H]1O [Cmpd 166] |
| 5.70 to 6.10 |  | COc1cccc2c(CCNc3ncc(C#N)c(NC4CCC(O)CC4)n3)c[nH]c12 (stereo not shown) [Cmpd 166] |
| 6.10 to 7.00 |  | Cc1[nH]c2c(F)cc(F)cc2c1CCNc1ncc(C#N)c(N[C@@H]2CC[C@H](O)C(C)(C)C2)n1 [Cmpd 167] |
|  | 6.10 to 7.00 | Cc1nnnn1-c1ccc(CCNc2ncc(C#N)c(N[C@@H]3CC[C@H](O)C(C)(C)C3)n2)cc1 [Cmpd 167] |
| 6.10 to 7.00 |  | Cc1[nH]c2ccccc2c1CCNc1ncc(C#N)c(N[C@@H]2CC[C@H](O)C(C)(C)C2)n1 [Cmpd 168] |
|  | 5.00 to 5.70 | Cc1nnnn1-c1ccccc1CCNc1ncc(C#N)c(N[C@@H]2CC[C@H](O)C(C)(C)C2)n1 [Cmpd 168] |
| 6.10 to 7.00 |  | CC1(C)C[C@H](Nc2nc(NCCc3c[nH]c4ccc(Cl)cc34)ncc2C#N)CC[C@@H]1O [Cmpd 169] |
|  | 6.10 to 7.00 | Cc1nnnn1-c1cccc(CCNc2ncc(C#N)c(N[C@@H]3CC[C@H](O)C(C)(C)C3)n2)c1 [Cmpd 169] |
| 6.10 to 7.00 |  | CC1(C)C[C@H](Nc2nc(NCCc3c[nH]c4cc(OC(F)(F)F)ccc34)ncc2C#N)CC[C@@H]1O [Cmpd 170] |
|  | > 7.00 | CC1(C)C[C@H](Nc2nc(NCCc3ccc(OCC(F)F)cc3)ncc2C#N)CC[C@@H]1O [Cmpd 170] |
| 5.00 to 5.70 |  | CC1(C)C[C@H](Nc2nc(NCCc3c[nH]c4ccc(OC(F)(F)F)cc34)ncc2C#N)CC[C@@H]1O [Cmpd 171] |
|  | > 7.00 | CC1(C)C[C@H](Nc2nc(NCCc3ccc(OCCF)cc3)ncc2C#N)CC[C@@H]1O [Cmpd 171] |
|  | 6.10 to 7.00 | CC1(C)C[C@H](Nc2nc(NCCc3cccc(S(N)(=O)=O)c3)ncc2C#N)CC[C@@H]1O [Cmpd 172] |
| 6.10 to 7.00 |  | Cc1cccc2c(CCNc3ncc(C#N)c(N[C@@H]4CC[C@H](O)C(C)(C)C4)n3)c[nH]c12 [Cmpd 172] |
| 6.10 to 7.00 |  | CC1(C)C[C@H](Nc2nc(NCCc3c[nH]c4cc(Cl)ccc34)ncc2C#N)CC[C@@H]1O [Cmpd 173] |
|  | 6.10 to 7.00 | CC1(C)C[C@H](Nc2nc(NCCc3cccc(S(C)(=O)=O)c3)ncc2C#N)CC[C@@H]1O [Cmpd 173] |
| 5.70 to 6.10 |  | Cc1ccc2c(CCNc3ncc(C#N)c(N[C@@H]4CC[C@H](O)C(C)(C)C4)n3)c[nH]c2c1 [Cmpd 174] |
|  | 6.10 to 7.00 | CN(C)S(=O)(=O)c1ccc(CCNc2ncc(C#N)c(N[C@@H]3CC[C@H](O)C(C)(C)C3)n2)cc1 [Cmpd 175] |
| 6.10 to 7.00 |  | COc1cccc2[nH]cc(CCNc3ncc(C#N)c(N[C@@H]4CC[C@H](O)C(C)(C)C4)n3)c12 [Cmpd 175] |
| 5.70 to 6.10 |  | CC1(C)C[C@H](Nc2nc(NCCc3n[nH]c4ccccc34)ncc2C#N)CC[C@@H]1O [Cmpd 176] |

| pIC50 | pIC50 (Table 2) | Structure (SMILES) |
| --- | --- | --- |
| 6.10 to 7.00 |  | COc1cccc2c(CCNc3ncc(C#N)c(N[C@@H]4CC[C@H](O)C(C)(C)C4)n3)c[nH]c12 [Cmpd 177] |
|  | > 7.00 | CC1(C)C[C@H](Nc2nc(NCCc3ccc(-n4ccnc4)c(Cl)c3)ncc2C#N)CC[C@@H]1O [Cmpd 180] |
| 6.10 to 7.00 |  | CC1(C)C[C@H](Nc2nc(NCCc3c[nH]c4ccc(F)cc34)ncc2C#N)CC[C@@H]1O [Cmpd 181] |
|  | > 7.00 | CC1(C)C[C@H](Nc2nc(NCCc3ccc(-n4cccn4)c(Cl)c3)ncc2C#N)CC[C@@H]1O [Cmpd 181] |
| > 7.00 |  | CC1(C)C[C@H](Nc2nc(NCCc3c[nH]c4c(F)cccc34)ncc2C#N)CC[C@@H]1O [Cmpd 182] |
|  | 6.10 to 7.00 | CC1(C)C[C@H](Nc2nc(NCCc3cccc(Cl)c3C(F)(F)F)ncc2C#N)CC[C@@H]1O [Cmpd 182] |
|  | 6.10 to 7.00 | CC1(C)C[C@H](Nc2nc(NCCc3cc(Cl)ccc3C(F)(F)F)ncc2C#N)CC[C@@H]1O [Cmpd 183] |
| > 7.00 |  | COc1ccc2c(CCNc3ncc(C#N)c(N[C@@H]4CC[C@H](O)C(C)(C)C4)n3)c[nH]c2c1 [Cmpd 183] |
| 6.10 to 7.00 |  | CC1(C)C[C@H](Nc2nc(NCCC3(O)C(=O)Nc4ccccc43)ncc2C#N)CC[C@@H]1O (stereo partly shown) [Cmpd 184] |
|  | > 7.00 | CC1(C)C[C@H](Nc2nc(NCCc3cc(F)cc(Cl)c3)ncc2C#N)CC[C@@H]1O [Cmpd 184] |
| 6.10 to 7.00 |  | CC1(C)C[C@H](Nc2nc(NCCc3cccs3)ncc2C#N)CC[C@@H]1O [Cmpd 185] |
|  | > 7.00 | CC1(C)C[C@H](Nc2nc(NCCc3ccc(S(N)(=O)=O)c(Cl)c3)ncc2C#N)CC[C@@H]1O [Cmpd 186] |
| 5.00 to 5.70 |  | CC1(C)C[C@H](Nc2nc(NCCc3ncon3)ncc2C#N)CC[C@@H]1O [Cmpd 191] |
| 6.10 to 7.00 |  | Cc1ccc(CCNc2ncc(C#N)c(N[C@@H]3CC[C@H](O)C(C)(C)C3)n2)o1 [Cmpd 192] |
|  | 6.10 to 7.00 | CC1(C)C[C@H](Nc2nc(NCCc3cc(Cl)ccc3S(N)(=O)=O)ncc2C#N)CC[C@@H]1O [Cmpd 193] |
| 5.00 to 5.70 |  | Cc1ccnn1CCNc1ncc(C#N)c(N[C@@H]2CC[C@H](O)C(C)(C)C2)n1 [Cmpd 193] |
| 5.00 to 5.70 |  | Cc1ccn(CCNc2ncc(C#N)c(N[C@@H]3CC[C@H](O)C(C)(C)C3)n2)n1 [Cmpd 194] |
| 5.00 to 5.70 |  | Cc1nc(CCNc2ncc(C#N)c(N[C@@H]3CC[C@H](O)C(C)(C)C3)n2)no1 [Cmpd 195] |
|  | > 7.00 | CC1(C)C[C@H](Nc2nc(NCCc3cccc(F)c3)ncc2C#N)CC[C@@H]1O [Cmpd 196] |
| 6.10 to 7.00 |  | CC1(C)C[C@H](Nc2nc(NCCc3ccco3)ncc2C#N)CC[C@@H]1O [Cmpd 196] |
|  | 6.10 to 7.00 | CC1(C)C[C@H](Nc2nc(NCCc3ccc(F)cc3F)ncc2C#N)CC[C@@H]1O [Cmpd 197] |

The remaining lines, values behind:

| Structure (SMILES) | pIC50 | pIC50 (Table 2) |
| --- | --- | --- |
| CC1(C)C[C@H](Nc2nc(NCc3cncnc3C(F)(F)F)ncc2C#N)CC[C@H]1O [Cmpd 159] | 6.10 to 7.00 |  |
| CC1(C)[C@H](N)C[C@@H]1Nc1nc(NCCc2cccc(Cl)c2)ncc1C#N [Cmpd 159] |  | > 7.00 |
| CC(F)(F)COc1ncncc1CNc1ncc(C#N)c(N[C@H]2CC[C@@](C)(C(N)=O)CC2)n1 [Cmpd 160] | > 7.00 |  |
| CC1(C)[C@@H](N)C[C@H]1Nc1nc(NCCc2cccc(Cl)c2)ncc1C#N [Cmpd 160] |  | 5.70 to 6.10 |
| CC1(C)C[C@H](Nc2nc(NCCc3ccc(C#N)cc3)ncc2C(F)(F)F)CC[C@@H]1O [Cmpd 161] |  | 6.10 to 7.00 |
| CC1(C)[C@@H](Nc2nc(NCCc3cccc(Cl)c3)ncc2C#N)C[C@@H]1C(N)=O [Cmpd 162] |  | 6.10 to 7.00 |
| N#Cc1cnc(NCCC2(O)C(=O)Nc3ccccc32)nc1N[C@H]1CC[C@@H](O)CC1 (stereo partly shown) [Cmpd 162] | 5.00 to 5.70 |  |
| CC1(C)[C@H](Nc2nc(NCCc3cccc(Cl)c3)ncc2C#N)C[C@H]1C(N)=O [Cmpd 163] |  | 5.00 to 5.70 |
| N#Cc1ccc2[nH]cc(CCNc3ncc(C#N)c(N[C@H]4CC[C@@H](O)CC4)n3)c2c1 [Cmpd 163] | 5.00 to 5.70 |  |
| CC1(C)[C@@H](Nc2nc(NCCc3cccc(Cl)c3)ncc2C#N)C[C@H]1C(N)=O [Cmpd 164] |  | 6.10 to 7.00 |
| COc1ccc2c(CCNc3ncc(C#N)c(N[C@H]4CC[C@@H](O)CC4)n3)c[nH]c2c1 [Cmpd 164] | 5.70 to 6.10 |  |
| CC1(C)[C@@H](C(N)=O)C[C@H]1Nc1nc(NCCc2cccc(Cl)c2)ncc1C#N [Cmpd 165] |  | > 7.00 |
| CC1(C)C[C@H](Nc2nc(NCCc3ccc(S(=O)(=O)N4CCCC4)cc3)ncc2C#N)CC[C@@H]1O [Cmpd 174] |  | 6.10 to 7.00 |
| CC1(C)C[C@H](Nc2nc(NCCc3ccc(S(=O)(=O)N4CCC4)cc3)ncc2C#N)CC[C@@H]1O [Cmpd 176] |  | 6.10 to 7.00 |
| CC1(C)C[C@H](Nc2nc(NCCc3ccc(S(=O)(=O)N4CCOCC4)cc3)ncc2C#N)CC[C@@H]1O [Cmpd 177] |  | 6.10 to 7.00 |
| CC1(C)C[C@H](Nc2nc(NCCc3ccc(S(=O)(=O)N4CCCCC4)cc3)ncc2C#N)CC[C@@H]1O [Cmpd 178] |  | 6.10 to 7.00 |
| N#Cc1cnc(NCCc2c[nH]c3ccc(F)cc23)nc1N[C@H]1CC[C@@H](C(N)=O)CC1 [Cmpd 178] | > 7.00 |  |

| Structure (SMILES) | pIC50 | pIC50 (Table 2) |
| --- | --- | --- |
| CN1CCN(S(=O)(=O)c2ccc(CCNc3ncc(C#N)c(N[C@@H]4CC[C@H](O)C(C)(C)C4)n3)cc2)CC1 [Cmpd 179] |  | 6.10 to 7.00 |
| N#Cc1cnc(NCCC2C(=O)Nc3ccccc32)nc1N[C@H]1CC[C@@H](C(N)=O)CC1 (stereo partly shown) [Cmpd 179] | > 7.00 |  |
| CCc1ccc2c(c1)C(CCNc1ncc(C#N)c(N[C@H]3CC[C@@H](C(N)=O)CC3)n1)C(=O)N2 (stereo partly shown) [Cmpd 180] | > 7.00 |  |
| CC1(C)C[C@H](Nc2nc(NCCc3ccc(S(=O)(=O)C(F)(F)F)cc3)ncc2C#N)CC[C@@H]1O [Cmpd 185] |  | 6.10 to 7.00 |
| CC1(C)[C@@H](O)C[C@H]1Nc1nc(NCCc2ccncc2)ncc1C#N [Cmpd 186] | 5.70 to 6.10 |  |
| CC1(C)C[C@@H](O)CC[C@@H]1Nc1nc(NCCc2cccc(Cl)c2)ncc1C#N [Cmpd 187] |  | 5.00 to 5.70 |
| CC1(C)[C@@H](O)C[C@H]1Nc1nc(NCCc2ccccn2)ncc1C#N [Cmpd 187] | 5.00 to 5.70 |  |
| CC1(C)C[C@H](O)CC[C@H]1Nc1nc(NCCc2cccc(Cl)c2)ncc1C#N [Cmpd 188] |  | 6.10 to 7.00 |
| CC1(C)[C@@H](O)C[C@H]1Nc1nc(NCCCn2ccnc2)ncc1C#N [Cmpd 188] | 5.00 to 5.70 |  |
| CC1(C)C[C@H](O)CC[C@@H]1Nc1nc(NCCc2cccc(Cl)c2)ncc1C#N [Cmpd 189] |  | 5.70 to 6.10 |
| CC1(C)[C@@H](O)C[C@H]1Nc1nc(NCCc2cccs2)ncc1C#N [Cmpd 189] | 6.10 to 7.00 |  |
| CC1(C)C[C@@H](O)CC[C@H]1Nc1nc(NCCc2cccc(Cl)c2)ncc1C#N [Cmpd 190] |  | > 7.00 |
| CC1(C)[C@@H](O)C[C@H]1Nc1nc(NCCc2cccc3cccnc23)ncc1C#N [Cmpd 190] | 5.00 to 5.70 |  |
| Cc1nnnn1-c1ccc(CCNc2ncc(C#N)c(N[C@@H]3CCC[C@@](C)(O)C3)n2)cc1 [Cmpd 191] |  | 5.00 to 5.70 |
| N#Cc1ccc(CCNc2ncc(C#N)c(N[C@H]3C[C@@H](C(N)=O)C3)n2)cc1 [Cmpd 192] |  | 5.00 to 5.70 |
| CC1(C)[C@@H](C(N)=O)C[C@H]1Nc1nc(NCCc2ccc(C#N)cc2)ncc1C#N [Cmpd 194] |  | 6.10 to 7.00 |
| N#Cc1cnc(NCCc2ccc(-n3ccnc3)c(F)c2)nc1N[C@H]1CC[C@@H](C(N)=O)CC1 [Cmpd 195] |  | > 7.00 |

— patent publication US9783505B2, “Substituted diaminopyrimidyl compounds, compositions thereof, and methods of treatment therewith” (Signal Pharmaceuticals, LLC, priority 2013, dated 2017)
